The values that follow come from PubChem BioAssay (NCI).

Molecules are shown by their SMILES.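 Assay format: 96-well plates, 48-hour exposure. GI50 marks 50% less growth. The concentration for full growth arrest is given as TGI.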

Some test systems named below: RXF 393 renal; HCT-116 colon; UACC-62 melanoma; HS 578T breast; SF-268 CNS; SK-MEL-2 melanoma; A498 renal; HOP-92 NSCLC.
Common to all, as to assay: DTP human tumour cell line panel, 48 h

Broadly, the TGI is the concentration at which net growth stops. A high value points to less potent growth arrest. With `OCCCN=C1CCCCC1`, the TGI with RXF 393 renal, in the assay with HCT-116 colon, in the assay with UACC-62 melanoma, in the assay with HS 578T breast, in the assay with SF-268 CNS and with SK-MEL-2 melanoma was above 100 µM throughout. Further, the TGI in the assay with A498 renal and in the assay on HOP-92 NSCLC was above 100 µM each time.

The GI50 is the concentration at which growth is held to half of that of the control. In the case of `COc1cc(-c2nc(-c3ccccc3)c(-c3ccccc3)[nH]2)cc(OC)c1O`, the GI50 in the assay with RXF 393 renal is 14.7 µM; with HCT-116 colon, 14.4 µM; in the assay on UACC-62 melanoma it was 15.2 µM; with HS 578T breast it was 19.4 µM; with SF-268 CNS, 20.1 µM; with SK-MEL-2 melanoma it was 19.8 µM. Besides, the values for the GI50 in the assay on A498 renal and in the assay with HOP-92 NSCLC were 0.0762 µM and 17.6 µM, respectively. Moreover, the TGI amounted to 31.2 µM in the assay with RXF 393 renal; 27.7 µM in the assay with HCT-116 colon; 29.6 µM in the assay with UACC-62 melanoma; 52.9 µM in the assay with HS 578T breast; 44.1 µM in the assay on SF-268 CNS; 35.5 µM in the assay with SK-MEL-2 melanoma. In addition, the TGI in the assay on A498 renal stood at 24.7 µM; with HOP-92 NSCLC, 35.4 µM.

As to `Cc1cc(C)c2nc3c(c(C(O)C4CCCCN4)c2c1)CC/C3=C\c1ccc(Cl)cc1` (centres undefined), the TGI in the assay with RXF 393 renal, in the assay on HCT-116 colon, with UACC-62 melanoma, in the assay on HS 578T breast, in the assay with SF-268 CNS and in the assay with SK-MEL-2 melanoma was above 100 µM in each case. In addition, the TGI in the assay on A498 renal and in the assay on HOP-92 NSCLC was above 100 µM throughout.

`Clc1ccc2c(NCCNc3nc(N4CCOCC4)nc4ccccc34)ccnc2c1`: the GI50 was 1.61 µM in the assay on RXF 393 renal; 1.66 µM in the assay on HCT-116 colon; 1.94 µM in the assay with UACC-62 melanoma; 2.58 µM in the assay on HS 578T breast; 3.53 µM in the assay with SF-268 CNS; 1.95 µM in the assay with SK-MEL-2 melanoma. Further, the results for the GI50 with A498 renal and in the assay with HOP-92 NSCLC were 1.87 µM and 1.43 µM, respectively. Also, the TGI in the assay on RXF 393 renal came to 3.63 µM; in the assay on HCT-116 colon, 3.3 µM; with UACC-62 melanoma, 3.75 µM; in the assay on HS 578T breast it was 7.71 µM; in the assay with SF-268 CNS, 13 µM; in the assay on SK-MEL-2 melanoma it was 3.72 µM. The TGI in the assay with A498 renal is 4.62 µM; in the assay on HOP-92 NSCLC, 3.2 µM.

Consider `O=c1[nH]c2cc(Cl)ccc2nc1/C(=N\Nc1ccccc1)C(O)c1ccc2c(c1)OCO2` (centres undefined), for which the TGI in the assay on RXF 393 renal, in the assay on HCT-116 colon, with UACC-62 melanoma, with HS 578T breast, in the assay on SF-268 CNS and with SK-MEL-2 melanoma was above 100 µM each time. Also, the TGI in the assay on A498 renal and in the assay on HOP-92 NSCLC was above 100 µM each time.

Take `COc1ccc2nc3ccccc3c(NCCNCCO)c2c1`: the GI50 is 0.763 µM with RXF 393 renal; 0.352 µM in the assay on HCT-116 colon; 1.09 µM in the assay with UACC-62 melanoma; 0.688 µM in the assay with HS 578T breast; 0.46 µM in the assay with SF-268 CNS; 0.448 µM in the assay on SK-MEL-2 melanoma. The GI50 in the assay on A498 renal is 0.431 µM; in the assay on HOP-92 NSCLC it was 0.908 µM. For the same compound, the TGI is 2.34 µM with RXF 393 renal; 4.84 µM in the assay on HCT-116 colon; 2.99 µM in the assay on UACC-62 melanoma; 3.85 µM with HS 578T breast; 2.95 µM with SF-268 CNS; 2.8 µM with SK-MEL-2 melanoma. The TGI in the assay with A498 renal was 1.71 µM; in the assay with HOP-92 NSCLC, 4.22 µM.

As for `CCn1cc(C(=O)O)c(=O)c2cc(F)c(N3CCN(S(=O)(=O)c4ccc(Cl)cc4Cl)CC3)cc21`, the GI50 in the assay with RXF 393 renal was 2.08 µM; in the assay on HCT-116 colon it was 3.56 µM; with UACC-62 melanoma it was 1.62 µM; in the assay with HS 578T breast, 2.53 µM; with SF-268 CNS, 3.86 µM; in the assay on SK-MEL-2 melanoma, 2.75 µM. Also, the GI50 was 3 µM with A498 renal and 1.22 µM in the assay with HOP-92 NSCLC. Besides, the TGI with RXF 393 renal was 5.68 µM; in the assay on HCT-116 colon, above 100 µM; in the assay on UACC-62 melanoma, 3.42 µM; with HS 578T breast, 7.66 µM; in the assay with SF-268 CNS it was above 100 µM; with SK-MEL-2 melanoma it was 5.8 µM. The TGI in the assay on A498 renal was found to be 30 µM; in the assay on HOP-92 NSCLC, 5.22 µM.

For the compound `CC(C)(C)N/N=C(/Cc1nc2c3c(ccc2[nH]c1=O)C(=O)c1ccccc1C3=O)C(=O)NC1=C(Cl)C(=O)c2ccccc2C1=O`, the TGI is above 100 µM in the assay on RXF 393 renal; above 100 µM with HCT-116 colon; above 100 µM in the assay with UACC-62 melanoma; 79.8 µM with HS 578T breast; 43.5 µM in the assay on SF-268 CNS; above 100 µM with SK-MEL-2 melanoma. The concentration for total growth inhibition (TGI) in the assay with A498 renal and in the assay with HOP-92 NSCLC was above 100 µM throughout.

For the compound `Clc1ccc(C=Nc2ccc(-c3nc4ccccc4[nH]3)cc2)cc1`, the GI50 in the assay with RXF 393 renal is above 100 µM; in the assay with HCT-116 colon, above 100 µM; in the assay on UACC-62 melanoma, above 100 µM; in the assay on HS 578T breast it was 39 µM; in the assay with SF-268 CNS, 58.4 µM; in the assay with SK-MEL-2 melanoma it was above 100 µM. In addition, the results for the GI50 with A498 renal and in the assay with HOP-92 NSCLC were 17.4 µM and 89.1 µM, respectively. The TGI in the assay on RXF 393 renal, in the assay on HCT-116 colon, in the assay with UACC-62 melanoma, with HS 578T breast, with SF-268 CNS and in the assay on SK-MEL-2 melanoma was above 100 µM throughout. The TGI with A498 renal and in the assay with HOP-92 NSCLC was above 100 µM each time.

As to `COc1cc(C2CC(c3ccccc3)=NN2C=O)ccc1Oc1ccnc2cc(Cl)ccc12` (centres undefined), the GI50 in the assay with RXF 393 renal is 15.4 µM; in the assay on HCT-116 colon it was 6.07 µM; in the assay with UACC-62 melanoma it was 6.76 µM; in the assay on HS 578T breast, 5.6 µM; in the assay on SF-268 CNS it was 23.2 µM; in the assay with SK-MEL-2 melanoma it was 8.68 µM. In addition, the GI50 in the assay on A498 renal is 6.9 µM; in the assay on HOP-92 NSCLC, 1.5 µM. Moreover, the TGI in the assay on RXF 393 renal is 47.6 µM; in the assay with HCT-116 colon, above 100 µM; in the assay on UACC-62 melanoma, above 100 µM; in the assay on HS 578T breast, above 100 µM; with SF-268 CNS, above 100 µM; with SK-MEL-2 melanoma, 38.6 µM. Moreover, the TGI with A498 renal is above 100 µM; in the assay with HOP-92 NSCLC, 13.6 µM.

In the case of `COc1cc(N=Nc2cc(Cc3ccc(N(C)C)cc3)c(N)cc2N(C)C)c2ncccc2c1`, the GI50 in the assay with RXF 393 renal is 1.08 µM; in the assay with HCT-116 colon it was 0.0426 µM; in the assay on UACC-62 melanoma, 0.42 µM; in the assay on HS 578T breast it was 0.473 µM; in the assay with SF-268 CNS, 0.593 µM; in the assay with SK-MEL-2 melanoma it was 0.562 µM. Further, the GI50 in the assay with A498 renal is 0.809 µM; in the assay on HOP-92 NSCLC it was 0.266 µM. Besides, the TGI with RXF 393 renal worked out at 2.49 µM; in the assay on HCT-116 colon, 1.19 µM; in the assay on UACC-62 melanoma, 1.83 µM; with HS 578T breast, 2.35 µM; in the assay with SF-268 CNS, 2.31 µM; in the assay on SK-MEL-2 melanoma it was 4.17 µM. The TGI with A498 renal was determined as 3.07 µM; in the assay on HOP-92 NSCLC, 1.5 µM.
